# Laboratory results as given in US11077100B2, “Tetrahydroquinoline derivatives as P2X7 receptor antagonists” (RaQualia Pharma Inc., priority 2017, dated 2021).
# Key:
# [1] = biological target: human P2X7 (Homo sapiens (Human), UniProt Q99572); assay: Human P2X7 functional assay (Ca2+ influx, Fluo-4, FDSS); assay type: cell-based; conditions: antagonistic activity with respect to the human P2X7 receptor; BzATP final concentration 80 microM
# Procedure, shortened: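 Ca2+ influx was triggered with BzATP (80 μM final) after a 10-min room-temperature compound preincubation and monitored with Fluo-4 (ex 480/em 540 nm) on FDSS. The cells were HEK293 stably carrying FLAG-tagged human P2X7. Duplicate-averaged 7-point dose-responses gave IC50s.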
# [2] = biological target: rat P2X7 (Rattus norvegicus (Rat), UniProt Q64663); assay: Rat P2X7 functional assay (Ca2+ influx, Fluo-4, FDSS); assay type: cell-based; conditions: HEK293 cells stably expressing rat P2X7; BzATP final 10 microM; 7-point dose-response; read-out: Antagonistic activities with respect to the rat P2X7 receptor (IC50)
# rat P2X7, sequence (Q64663 whole entry): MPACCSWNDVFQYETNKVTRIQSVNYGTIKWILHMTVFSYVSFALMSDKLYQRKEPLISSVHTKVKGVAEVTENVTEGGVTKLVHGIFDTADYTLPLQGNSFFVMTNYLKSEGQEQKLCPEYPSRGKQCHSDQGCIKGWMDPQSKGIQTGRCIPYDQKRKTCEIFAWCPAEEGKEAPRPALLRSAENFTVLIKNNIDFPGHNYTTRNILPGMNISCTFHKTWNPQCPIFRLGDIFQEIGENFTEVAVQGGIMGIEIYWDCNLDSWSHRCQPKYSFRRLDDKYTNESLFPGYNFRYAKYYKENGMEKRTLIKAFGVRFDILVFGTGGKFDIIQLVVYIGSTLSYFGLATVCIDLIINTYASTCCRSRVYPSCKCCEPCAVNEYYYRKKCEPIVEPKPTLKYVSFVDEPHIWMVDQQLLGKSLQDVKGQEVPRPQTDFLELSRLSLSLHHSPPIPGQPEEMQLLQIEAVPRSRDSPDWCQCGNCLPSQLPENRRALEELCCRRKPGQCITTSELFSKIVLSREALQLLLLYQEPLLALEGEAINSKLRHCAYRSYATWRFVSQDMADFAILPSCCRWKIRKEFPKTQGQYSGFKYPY
# Procedure, shortened: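 IC50 derived from 7-point dose-response in duplicate, measuring inhibition of BzATP-evoked (final 10 microM) intracellular Ca2+ increase by Fluo-4 fluorescence on FDSS. Rat P2X7-HEK293 cells were exposed to compound for 10 min in the dark beforehand.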
# human P2X7, sequence (Q99572 whole entry): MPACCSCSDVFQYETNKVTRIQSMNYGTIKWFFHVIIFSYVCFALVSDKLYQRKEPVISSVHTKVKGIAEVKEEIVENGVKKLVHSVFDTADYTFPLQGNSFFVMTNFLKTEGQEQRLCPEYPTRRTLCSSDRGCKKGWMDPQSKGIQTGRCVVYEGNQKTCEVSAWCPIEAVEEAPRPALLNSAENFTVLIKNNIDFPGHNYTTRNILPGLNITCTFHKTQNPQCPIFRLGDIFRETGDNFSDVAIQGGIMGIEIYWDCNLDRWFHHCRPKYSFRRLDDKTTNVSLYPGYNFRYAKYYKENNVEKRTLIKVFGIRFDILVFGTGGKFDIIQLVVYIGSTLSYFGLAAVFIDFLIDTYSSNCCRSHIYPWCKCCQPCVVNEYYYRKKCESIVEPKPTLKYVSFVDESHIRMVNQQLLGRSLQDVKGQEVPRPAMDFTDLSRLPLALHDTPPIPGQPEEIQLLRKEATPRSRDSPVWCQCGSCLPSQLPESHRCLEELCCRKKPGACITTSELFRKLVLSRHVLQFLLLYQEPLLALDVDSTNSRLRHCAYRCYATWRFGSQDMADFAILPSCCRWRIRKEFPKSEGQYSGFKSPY
IC50 [1] [nM],IC50 [2] [nM],Structure (SMILES)
< 50,< 1000,"CN(C)CC1(O)CCC(F)(C(=O)NCc2cccc(C(F)(F)F)c2Cl)c2cccnc21 (centres unmarked) [Example 50, N-(2-chloro-3-(trifluoro-methyl)benzyl)-8-((di-methylamino)methyl)-5-fluoro-8-hydroxy-5,6,7,8-tetrahydroquinoline-5-carboxamide]"
< 50,< 1000,"CC1(O)CCC(F)(C(=O)NCc2cccc(C(F)(F)F)c2Cl)c2cccnc21 (centres unmarked) [Example 58, N-(2-chloro-3-(trifluoro-methyl)benzyl)-5-fluoro-8-hydroxy-8-methyl-5,6,7,8-tetrahydro-quinoline-5-carboxamide]"
< 50,< 1000,"O=C(NCc1ccc(Cl)cc1Cl)[C@@H]1CC[C@H](O)c2ncccc21 [Example 66, (5R,8S)-N-(2,4-dichloro-benzyl)-8-hydroxy-5,6,7,8-tetrahydroquinoline-5-carboxamide]"
101 to 300,< 1000,"O=C(NCc1ccc(F)cc1Cl)[C@H]1CC[C@H](O)c2ncccc21 [Example 67, (5S,8S)-N-(2-chloro-4-fluorobenzyl)-8-hydroxy-5,6,7,8-tetrahydroquinoline-5-carboxamide]"
< 50,< 1000,"O=C(NCc1ccc(F)cc1Cl)[C@@H]1CC[C@H](O)c2ncccc21 [Example 68, (5R,8S)-N-(2-chloro-4-fluorobenzyl)-8-hydroxy-5,6,7,8-tetrahydroquinoline-5-carboxamide]"
< 50,< 1000,"O=C(NCc1c(F)cc(Cl)cc1Cl)[C@@H]1CC[C@H](O)c2ncccc21 [Example 70, (5R,8S)-N-(2,4-dichloro-6-fluorobenzyl)-8-hy-droxy-5,6,7,8-tetrahydro-quinoline-5-carboxamide]"
< 50,< 1000,"O=C(NCc1ccc(F)c(F)c1F)[C@@H]1CC[C@H](O)c2ncccc21 [Example 72, (5R,8S)-8-hydroxy-N-(2,3,4-trifluorobenzyl)-5,6,7,8-tetrahydroquinoline-5-carboxamide]"
101 to 300,< 1000,"O=C(NCc1ccc(F)cc1F)[C@@H]1CC[C@H](O)c2ncccc21 [Example 74, (5R,8S)-N-(2,4-difluoro-benzyl)-8-hydroxy-5,6,7,8-tetrahydroquinoline-5-carboxamide]"
50 to 100,< 1000,"O=C(NCc1ccc(F)cc1C(F)(F)F)[C@@H]1CC[C@H](O)c2ncccc21 [Example 76, (5R,8S)-N-(4-fluoro-2-(tri-fluromethyl)benzyl)-8-hydroxy-5,6,7,8-tetra-hydroquinoline-5-carboxamide]"
< 50,< 1000,"O=C(NCc1ccc(Cl)cc1F)[C@@H]1CC[C@H](O)c2ncccc21 [Example 78, (5R,8S)-N-(4-chloro-2-fluorobenzyl)-8-hydroxy-5,6,7,8-tetrahydroquinoline-5-carboxamide]"
50 to 100,< 1000,"O=C(NCc1ccc(Br)cc1F)[C@@H]1CC[C@H](O)c2ncccc21 [Example 80, (5R,8S)-N-(4-bromo-2-fluorobenzyl)-8-hydroxy-5,6,7,8-tetrahydroquinoline-5-carboxamide]"
< 50,< 1000,"O=C(NCc1ccc(F)c(F)c1Cl)[C@H]1CC[C@H](O)c2ncccc21 [Example 81, (5S,8S)-N-(2-chloro-3,4-difluorobenzyl)-8-hy-droxy-5,6,7,8-tetrahydro-auinoline-5-carboxamide]"
< 50,< 1000,"O=C(NCc1ccc(F)c(F)c1Cl)[C@@H]1CC[C@H](O)c2ncccc21 [Example 82, (5R,8S)-N-(2-chloro-3,4-difluorobenzyl)-8-hy-droxy-5,6,7,8-tetrahydro-quinoline-5-carboxamide]"
101 to 300,< 1000,"Cc1cc(Cl)cc(Cl)c1CNC(=O)[C@H]1C[C@H](O)c2ncccc21 [Example 83, (5S,7S)-N-(2,4-dichloro-6-methylbenzyl)-7-hy-droxy-5,7-dihydro-5H-cyclopenta[b]pyridin-5-carboxamide]"
< 50,< 1000,"Cc1cc(Cl)cc(Cl)c1CNC(=O)[C@@H]1CC[C@@H](O)c2ncccc21 [Example 84, (5R,8R)-N-(2,4-dichloro-6-methylbenzyl)-8-hy-droxy-5,6,7,8-tetrahydro-quinoline-5-carboxamide]"
< 50,< 1000,"Cc1cc(Cl)cc(Cl)c1CNC(=O)[C@H]1CC[C@@H](O)c2ncccc21 [Example 85, (5S,8R)-N-(2,4-dichloro-6-methylbenzyl)-8-hy-droxy-5,6,7,8-tetrahydro-quinoline-5-carboxamide]"
50 to 100,< 1000,"O=C(NCc1ccc(Cl)cc1Cl)[C@@H]1CC[C@@H](O)c2ncccc21 [Example 87, (5R,8R)-N-(2,4-dichloro-benzyl)-8-hydroxy-5,6,7,8-tetrahydroquinoline-5-carboxamide]"

IC50 [1] [nM],IC50 [2] [nM],Structure (SMILES)
< 50,< 1000,"O=C(NCc1ccc(Cl)cc1Cl)[C@H]1CC[C@@H](O)c2ncccc21 [Example 88, (5S,8R)-N-(2,4-dichloro-benzyl)-8-hydroxy-5,6,7,8-tetrahydroquinoline-5-carboxamide]"
101 to 300,< 1000,"O=C(NCc1ccc(F)cc1Cl)[C@@H]1CC[C@@H](O)c2ncccc21 [Example 89, (5R,8R)-N-(2-chloro-4-fluorobenzyl)-8-hydroxy-5,6,7,8-tetrahydroquinoline-5-carboxamide]"
< 50,< 1000,"Cc1cc(Cl)cc(Cl)c1CNC(=O)[C@@H]1C[C@@H](O)c2ncccc21 [Example 97, (5R,7R)-N-(2,4-dichloro-6-methylbenzyl)-7-hy-droxy-6,7-dihydro-5H-cyclopenta[b]pyridin-5-carboxamide]"
< 50,< 1000,"Cc1cc(Cl)cc(Cl)c1CNC(=O)[C@]1(F)CC[C@@H](O)c2ncccc21 [Example 100, (5S,8R)-N-(2,4-dichloro-6-methylbenzyl)-5-fluoro-8-hydroxy-5,6,7,8-tetrahydroquinoline-5-carboxamide]"
< 50,< 1000,"O=C(NCc1cccc(C(F)(F)F)c1Cl)[C@]1(F)CC[C@@H](O)c2ncccc21 [Example 102, (5S,8R)-N-(2-chloro-3-(trifluoromethyl)benzyl)-5-fluoro-8-hydroxy-5,6,7,8-tetrahydroquinoline-5-carboxamide]"
< 50,< 1000,O=C(NCc1c(Cl)cc(Cl)cc1CO)[C@]1(F)CC[C@@H](O)c2ncccc21 [Example 104]
< 50,< 1000,"O=C(NCc1ccc(Cl)cc1Cl)[C@]1(F)CC[C@@H](O)c2ncccc21 [Example 106, (5S,8R)-N-(2,4-dichlorobenzyl)-5-fluoro-8-hydroxy-5,6,7,8-tetrahydroquinoline-5-carboxamide]"
101 to 300,< 1000,"O=C(NCc1ccc(F)cc1Cl)[C@]1(F)CC[C@@H](O)c2ncccc21 [Example 107, (5S,8R)-N-(2-chloro-4-fluorobenzyl)-5-fluoro-8-hydroxy-5,6,7,8-tetrahydroquinoline-5-carboxamide]"
301 to 1000,< 1000,"O=C(NCc1ccc(F)c(F)c1F)[C@]1(F)CC[C@@H](O)c2ncccc21 [Example 108, (5S,8R)-5-fluoro-8-hydroxy-N-(2,3,4-trifluorobenzyl)-5,6,7,8-tetrahydroquinoline-5-carboxamide]"
301 to 1000,< 1000,"O=C(NCc1ccc(F)cc1C(F)(F)F)[C@]1(F)CC[C@@H](O)c2ncccc21 [Example 110, (5S,8R)-5-fluoro-N-(4-fluoro-2-(trifluoromethyl)benzyl)-8-hydroxy-5,6,7,8-tetrahydroquinoline-5-carboxamide]"
301 to 1000,< 1000,"O=C(NCc1ccc(Cl)cc1F)[C@]1(F)CC[C@@H](O)c2ncccc21 [Example 111, (5S,8R)-N-(4-chloro-2-fluorobenzyl)-5-fluoro-8-hydroxy-5,6,7,8-tetrahydroquinoline-5-carboxamide]"
< 50,< 1000,O=C(NCc1c(Cl)cc(Cl)cc1C(F)F)[C@]1(F)CC[C@@H](O)c2ncccc21 [Example 115]
< 50,< 1000,"O=C(NCc1c(F)cc(Cl)cc1Cl)[C@]1(F)CC[C@@H](O)c2ncccc21 [Example 117, (5S,8R)-N-(2,4-dichloro-6-fluorobenzyl)-5-fluoro-8-hydroxy-5,6,7,8-tetrahydroquinoline-5-carboxamide]"
< 50,< 1000,"O=C(NCc1ccc(Br)cc1Cl)[C@]1(F)CC[C@@H](O)c2ncccc21 [Example 118, (5S,8R)-N-(4-bromo-2-chlorobenzyl)-5-fluoro-8-hydroxy-5,6,7,8-tetrahydroquinoline-5-carboxamide]"
50 to 100,< 1000,"Cc1cccc(Cl)c1CNC(=O)[C@]1(F)CC[C@@H](O)c2ncccc21 [Example 122, (5S,8R)-N-(2-chloro-6-methylbenzyl)-5-fluoro-8-hydroxy-5,6,7,8,- tetrahydroquinoline-5-carboxamide]"
< 50,< 1000,"O=C(NCc1cccc(C(F)(F)F)c1Cl)[C@@]1(F)CC[C@@H](O)c2ncccc21 [Example 128, (5R,8R)-N-(2-chloro-3-(trifluoromethyl)benzyl)-5-fluoro-8-hydroxy-5,6,7,8-tetrahydroquinoline-5-carboxamide]"
< 50,< 1000,"O=C(NCc1cccc(C(F)(F)F)c1Cl)[C@]1(F)CC[C@H](O)c2ncccc21 [Example 129, (5S,8S)-N-(2-chloro-3-(trifluoromethyl)benzyl)-5-fluoro-8-hydroxy-5,6,7,8-tetrahydroquinoline-5-carboxamide]"
